Values quoted from earlier work in patent US20220273015A1, “FORMULATIONS AND USES THEREOF” (priority 2021, published 2022).
Entries after “also recorded” stand apart in the source; their conditions may differ.

Tests used:
[1] = for Stability: best preserved in an alcoholic tincture; for Properties: properties in words from a review of the primary literature (PMIDs in the cell), wrapped cell lines
[2] = test system: atypical/precancerous stem cells; conditions: used separately or together in one study
[3] = <1 ug daily, postoperative control of analgesia

COc1cc(CCC(C)=O)ccc1O [zingerone]
diuretic effect ([1]; observed only at a dose of 30 mg/kg in normal mice, PMID 20606379): Oil, zingerone exhibited a mild diuretic effect

CCCCC/C=C\C/C=C\CCCCCCCC(=O)O [Linoleic acid]
Wound healing / skin repair and skin health ([1]; qualitative, PMID-cited): shown to lighten UV-induced

O=c1cc(-c2ccc(O)cc2)oc2cc(O)cc(O)c12 [Apigenin]
Anti-cancer / cytotoxic / antitumor properties ([1]; qualitative, PMID-cited): exerts an antitumor effect in preclinical models

CC(C)=CCC[C@](C)(O)C1CC=C(C)CC1 (stereo partly drawn) [bisabolol]
Stability [1]: are very unstable and are best preserved in an

CCCCC/C=C\C/C=C\CCCCCCCC(=O)O [linoleic acid]
Safety / toxicity ([1]; qualitative): in high quantities is associated with higher rates
Wound healing / skin repair and skin health ([1]; qualitative, PMID-cited): polyunsaturated fat that improves skin barrier

CCc1ccc(C)c2ccc(C)c-2c1 [chamazulene]
Stability [1]: are very unstable and are best preserved in an

CC(=O)N[C@@H](CS)C(=O)O [N-Acetyl Cysteine (NAC)]
Properties [1]: completely blocks Reactive Oxygen Species

O=C1CC[C@@]2(O)[C@H]3Cc4ccc(O)c5c4[C@@]2(CCN3CC2CC2)[C@H]1O5 [VLDN]
tolerability of opioid-weaning methadone taper ([1]; <1 ug X <0.5 mg daily): VLDN: boosting tolerability of opioid-weaning

CCCCCCCC/C=C\CCCCCCCC(=O)O [Oleic acid (OA)]
Safety / toxicity ([1]; qualitative): lead to heart failure (PMID 28391879) though
Skin penetration / delivery of ingredients across skin and membranes ([1]; qualitative, PMID-cited): Oleic acid (OA) enhances lipophilic penetration

CCCCCCCC/C=C\CCCCCCCC(=O)O [Oleic acid]
lipophilic penetration of skin cells ([1]; "may enhance", PMID 21871866, PMID 2367329): enhance lipophilic penetration of skin cells
effect on the cell membrane allowing for drug permeability ([1]; PMID 2235880): 21871866) and creates a temporary disruption
targeted drug delivery across the skin ([1]; PMID 2514720): facilitate targeted drug delivery across the skin

C=C1/C(=C\C=C2/CCC[C@]3(C)[C@@H]([C@H](C)/C=C/[C@@H](O)C4CC4)CC[C@@H]23)C[C@@H](O)C[C@@H]1O [calcipotriene]
chronic plaque psoriasis ([1]; topical application, PMID 10753146): topical application of calcipotriene improves

CC(C)=CCC/C(C)=C/CC/C(C)=C/CC/C(C)=C/CC/C(C)=C/CC/C(C)=C/CC/C(C)=C/CC1=C(C)C(=O)c2ccccc2C1=O [MK7]
bone mineral density ([1]; by facilitating signaling cascades which improve translocation of calcium from the serum into the bony matrix, PMID 32244313): other vitamin K homologs. MK7 increases

O=C(O)c1cc(O)c(O)c(O)c1 [Gallic Acid]
antioxidant, anti-inflammatory, anti-microbial, anti-cancer activities ([1]; PMID 30657034): Powerful antioxidant, anti-inflammatory, anti-
preventing and treating acne ([1]; PMID 32390309, PMID 30617549): 23501608). Useful in preventing and treating
inhibitory properties against cancer ([1]; in vitro and in vivo, PMID 23501608): Plant polyphenol with strong inhibitory
NFKB, Akt, COX, ribonucleotide reductase and GSH pathways ([1]; mechanism of anti-cancer effect, PMID 23501608): (PMID 23501608) by inhibition of NFKB, Akt,
ATM kinase signaling ([1]; to prevent carcinogenesis, PMID 23501608): pathways; and also activates ATM kinase

CCCCCCCCCCCCCCCC(=O)O [Palmitic Acid]
Wound healing / skin repair and skin health ([1]; qualitative, PMID-cited): Palmitic Acid is a saturated fat essential to skin

COc1cc(/C=C/C(=O)CC(=O)/C=C/c2ccc(O)c(OC)c2)ccc1O [curcumin]
number of atypical/precancerous stem cells [2]: reduced

O=c1c(O)c(-c2ccc(O)c(O)c2)oc2cc(O)cc(O)c12 [Quercetin]
Anti-cancer / cytotoxic / antitumor properties ([1]; qualitative, PMID-cited): antitumor effects PMID 31880372) the ability

Vitamin E
Properties [1]: skin barrier stabilizing properties (PMID

O=C1CC[C@@]2(O)[C@H]3Cc4ccc(O)c5c4[C@@]2(CCN3CC2CC2)[C@H]1O5 [ULDN]
need for total amount of opioids following surgery [1, 3]: (reduces the need for total amount of opioids
side-effects of opioid-related treatment [1, 3]: following surgery and ameliorating side-effects

O=C(O)CCCCC1CCSS1 (stereo not drawn) [Alpha-Lipoic Acid]
blood flow to damaged nerves, nerve conduction velocity, and other measures of nerve function ([1]; PMID 25381809): microcirculation (PMID 160261130), improves
diabetic polyneuropathy ([1]; PMID 160261130): improving
microcirculation ([1]; PMID 160261130): oxidative stress, aging, cancer, improves
oxidative stress, aging, cancer ([1]; PMID 160261130): reducing
antioxidant protection of lipids ([1]; such as those found in the myelin sheath of neurons): Antioxidant which specifically protects lipids

CCCCCCCCCCCCCCCCCC(=O)O [Stearic acid]
Metabolic and cardiovascular effects (lipids, blood pressure, glucose, clotting) ([1]; qualitative, PMID-cited): 10945745) and can increase the “good”
Wound healing / skin repair and skin health ([1]; qualitative, PMID-cited): a saturated fatty acid beneficial to skin; also recorded: important in wound healing of burns (PMID

C=C(C)[C@H]1CC=C(C)CC1 [D-limonene]
Antimicrobial, antiparasitic, insecticidal / insect repellent properties ([1]; qualitative, PMID-cited): a result. D-limonene has antimicrobial
Effects in animal models ([1]; qualitative, rodent/animal models, PMID-cited): more capable. D-limonene has a mild diuretic
